Residues, ends and D or L forms follow the SMILES beside them.
Key:
[1] = biological target: Transcription factor AP1 (Homo sapiens, UniProt P01100+P05412); experiment: Inhibitory activity against transcription activator protein-1 (AP-1); format: protein-complex assay
[2] = biological target: Transcription factor AP1 (Homo sapiens) (UniProt P05412+P01100); experiment: Percent inhibition of transcription activator protein-1 (AP-1) in DNA binding assay at 100 uM; format: protein-complex assay

Sequence of Transcription factor AP1 (P05412 whole entry): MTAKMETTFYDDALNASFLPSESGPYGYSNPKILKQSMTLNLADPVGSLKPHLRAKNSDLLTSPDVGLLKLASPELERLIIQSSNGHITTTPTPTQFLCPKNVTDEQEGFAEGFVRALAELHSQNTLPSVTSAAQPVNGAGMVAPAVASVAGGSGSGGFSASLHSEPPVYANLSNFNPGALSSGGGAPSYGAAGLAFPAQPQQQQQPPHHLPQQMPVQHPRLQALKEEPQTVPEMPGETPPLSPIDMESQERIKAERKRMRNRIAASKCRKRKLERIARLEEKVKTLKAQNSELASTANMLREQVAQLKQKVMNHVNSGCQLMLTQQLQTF
Sequence of Transcription factor AP1 (P01100 whole entry): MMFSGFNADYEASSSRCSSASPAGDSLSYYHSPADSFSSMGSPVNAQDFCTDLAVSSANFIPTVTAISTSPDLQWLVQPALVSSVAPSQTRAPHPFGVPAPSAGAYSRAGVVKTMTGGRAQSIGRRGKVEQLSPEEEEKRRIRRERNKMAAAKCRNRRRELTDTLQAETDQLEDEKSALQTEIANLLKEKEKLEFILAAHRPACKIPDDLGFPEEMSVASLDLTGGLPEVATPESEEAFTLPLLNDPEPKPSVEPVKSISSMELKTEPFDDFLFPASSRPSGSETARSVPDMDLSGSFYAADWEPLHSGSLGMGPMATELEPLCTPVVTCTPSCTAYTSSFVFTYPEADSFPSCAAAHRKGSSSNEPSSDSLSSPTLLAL

Structure (SMILES)	IC50 [1] [µM]	inhibition [2] [%]
CC(C)C[C@H](NC(=O)[C@H](C)NC(=O)CN)C(=O)N[C@@H](CC(=O)O)C(=O)N[C@@H](CC(C)C)C(=O)N[C@@H](C)C(=O)N[C@@H](CC(=O)O)C(=O)NCC(=O)O (H-GALDLADG-OH)	> 100	29
CC(C)C[C@H](NC(=O)[C@H](CC(=O)O)NC(=O)[C@H](C)NC(=O)[C@H](CCC(N)=O)NC(=O)CN)C(=O)N[C@@H](C)C(=O)N[C@@H](CC(=O)O)C(=O)NCC(=O)O (H-GQADLADG-OH)	> 100	11
CC(C)C[C@H](NC(=O)[C@H](CC(=O)O)NC(=O)[C@H](CC(C)C)NC(=O)[C@@H](N)CCC(N)=O)C(=O)N[C@@H](C)C(=O)N[C@@H](CC(=O)O)C(=O)NCC(=O)O (H-QLDLADG-OH)	> 100	-2
CC(C)C[C@H](NC(=O)[C@H](CC(=O)O)NC(=O)[C@H](CC(C)C)NC(=O)[C@H](CCCCN)NC(=O)CN)C(=O)N[C@@H](C)C(=O)N[C@@H](CC(=O)O)C(=O)NCC(=O)O (H-GKLDLADG-OH)	> 200	-2
CC(C)C[C@H](NC(=O)[C@H](CC(=O)O)NC(=O)[C@H](CC(C)C)NC(=O)[C@H](CCC(=O)O)NC(=O)CN)C(=O)N[C@@H](C)C(=O)N[C@@H](CC(=O)O)C(=O)NCC(=O)O (H-GELDLADG-OH)	> 200	-2
CC(C)C[C@H](NC(=O)[C@H](CC(=O)O)NC(=O)[C@H](CC(C)C)NC(=O)[C@H](CC(N)=O)NC(=O)CN)C(=O)N[C@@H](C)C(=O)N[C@@H](CC(=O)O)C(=O)NCC(=O)O (H-GNLDLADG-OH)	> 100	42
CC(C)C[C@H](NC(=O)[C@H](CC(=O)O)NC(=O)[C@H](CC(C)C)NC(=O)[C@H](CCC(N)=O)NC(=O)CN)C(=O)NCC(=O)N[C@@H](CC(=O)O)C(=O)NCC(=O)O (H-GQLDLGDG-OH)	> 200	1
CC(C)C[C@H](NC(=O)[C@H](CCC(N)=O)NC(=O)CN)C(=O)N[C@@H](CC(=O)O)C(=O)N[C@@H](CC1CCCCC1)C(=O)N[C@@H](C)C(=O)N[C@@H](CC(=O)O)C(=O)NCC(=O)O (HELM PEPTIDE1{G.Q.L.D.[Cha].A.D.G}$$$$V2.0)	> 100	10
CC(C)C[C@H](NC(=O)[C@H](CC(=O)O)NC(=O)[C@H](CC1CCCCC1)NC(=O)[C@H](CCC(N)=O)NC(=O)CN)C(=O)N[C@@H](C)C(=O)N[C@@H](CC(=O)O)C(=O)NCC(=O)O (HELM PEPTIDE1{G.Q.[Cha].D.L.A.D.G}$$$$V2.0)	> 100	
CC(C)C[C@H](NC(=O)[C@H](CCC(N)=O)NC(=O)CN)C(=O)N[C@@H](CC(=O)O)C(=O)N[C@@H](C)C(=O)N[C@@H](C)C(=O)N[C@@H](CC(=O)O)C(=O)NCC(=O)O (H-GQLDAADG-OH)	> 100	7

More lines, now with the values ahead:

IC50 [1] [µM]	inhibition [2] [%]	Structure (SMILES)
> 100	14	CC(C)C[C@H](NC(=O)[C@H](CC(=O)O)NC(=O)[C@H](CC(C)C)NC(=O)[C@H](CCC(N)=O)NC(=O)CN)C(=O)N[C@@H](C)C(=O)N[C@@H](C)C(=O)NCC(=O)O (H-GQLDLAAG-OH)
> 200	-1	CC(C)C[C@H](NC(=O)[C@H](C)NC(=O)[C@H](CC(C)C)NC(=O)[C@H](CCC(N)=O)NC(=O)CN)C(=O)N[C@@H](C)C(=O)N[C@@H](CC(=O)O)C(=O)NCC(=O)O (H-GQLALADG-OH)
> 100	5	CC(C)C[C@H](NC(=O)[C@H](CC(=O)O)NC(=O)[C@H](CC(C)C)NC(=O)[C@H](CCC(N)=O)NC(=O)[C@H](C)N)C(=O)N[C@@H](C)C(=O)N[C@@H](CC(=O)O)C(=O)NCC(=O)O (H-AQLDLADG-OH)
8	81	CC(C)C[C@H](NC(=O)[C@H](CC(=O)O)NC(=O)[C@H](CC(C)C)NC(=O)[C@H](CCC(N)=O)NC(=O)CN)C(=O)N[C@@H](C)C(=O)N[C@@H](CC(=O)O)C(=O)NCC(=O)O (H-GQLDLADG-OH)
> 100	15	CC(C)C[C@H](NC(=O)[C@H](CC(=O)O)NC(=O)[C@H](CC(C)C)NC(=O)[C@H](CCC(N)=O)NC(=O)CN)C(=O)N[C@@H](C)C(=O)N[C@@H](CC(=O)O)C(=O)N[C@@H](C)C(=O)O (H-GQLDLADA-OH)
> 100	11	CC(C)C[C@H](NC(=O)[C@H](CC(=O)O)NC(=O)[C@H](CC(C)C)NC(=O)[C@H](CCC(N)=O)NC(=O)CN)C(=O)N[C@@H](C)C(=O)N[C@@H](CC(=O)O)C(=O)O (H-GQLDLAD-OH)
52	64	CC(C)C[C@H](NC(=O)[C@H](CC(=O)O)NC(=O)[C@H](CC(C)C)NC(=O)[C@H](CCC(N)=O)NC(=O)CN)C(=O)N[C@@H](C)C(=O)N[C@@H](CC(N)=O)C(=O)NCC(=O)O (H-GQLDLANG-OH)
